Laboratory results taken from patent US6849612B2, “Oligonucleotide modulation of cell adhesion” (ISIS Pharmaceuticals, Inc., priority 1993, dated 2005).
Strand notation (5' to 3'): a small letter for the sugar, then the base; units joined by * are phosphorothioate-linked, units joined directly phosphodiester-linked; [ ] holds rarer units or linkages, { } end groups; capitals alone tell only the bases. d = 2'-deoxy (DNA)

What was measured:
[1] = test system: ICAM-1; experiment: ELISA of ICAM-1 cell surface expression in oligonucleotide-pretreated, cytokine-stimulated HUVEC; format: cell-based, human; conditions: HUVEC, interleukin-1β; concentration not given
[2] = test system: ICAM-1; experiment: ELISA screening for ICAM-1 expression in interleukin-1β-stimulated cells (HUVEC and A549); format: cell-based, human; conditions: interleukin-1β-stimulated cells, two cell lines (HUVEC, A549)
[3] = test system: VCAM-1; experiment: ELISA of VCAM-1 expression in TNF-stimulated HUVEC; format: cell-based, human; conditions: for VCAM-1 EXPRESSION 30 nM oligo (VCAM-1 expression is given as % of control) / VCAM-1 EXPRESSION 50 nM oligo (VCAM-1 expression is given as % of control): TNF-α 16 hours; for IC50: TNF-α, read-out: IC50 for inhibition of VCAM-1 expression (asterisk)
Description: Primary human umbilical vein endothelial (HUVEC) cells, passage 2 to 5, were plated in 96-well plates and allowed to reach confluence. Cells were washed three times with Opti-MEM (GIBCO, Grand Island N.Y.). Cells were treated with increasing concentrations of oligonucleotide diluted in Opti-MEM containing 10 μg/ml DOTMA solution (Bethesda Research Labs, Bethesda, Md.) for 4 hours at 370C. The medium was removed and replaced with EGM-UV (Clonetics, San Diego Calif.) plus oligonucleotide. Tumor necrosis factor α was added to the medium (2.5 ng/ml) and the cells were incubated an additional 4 hours at 37° C.
ELAM-1 expression was determined by ELISA. Cells were gently washed three times with Dulbecco's phosphate-buffered saline (D-PBS) prewarmed to 37° C. Cells were fixed with 95% ethanol at 4° C. for 20 minutes, washed three times with D-PBS and blocked with 2% BSA in D-PBS. Cells were incubated with ELAM-1 monoclonal antibody BBA-1 (R&D Systems, Minneapolis Minn.) diluted to 0.5 μg/ml in D-PBS containing 2% BSA for 1 hour at 37° C. Cells were washed three times with D-PBS and the bound ELAM-1 antibody detected with biotinylated goat anti-mouse secondary antibody followed by β-galactosidase-conjugated streptavidin as described in Example 1.
Inhibition of VCAM-1 expression by fifteen antisense phosphorothioate oligonucleotides was determined using the ELISA assay approximately as described in Example 12, except that cells were stimulated with TNF-àfor 16 hours and VCAM-1 expression was detected by a VCAM-1 specific monoclonal antibody (R & D Systems, Minneapolis, Minn.) used at 0.5 μg/ml.

[4] = test system: corneal allograft rejection; experiment: Rat corneal allograft rejection (ACI donor to Lewis recipient); format: in vivo

Substance	inhibition of ICAM-1 expression, relative activity in words [2]	VCAM-1 EXPRESSION 30 nM oligo (VCAM-1 expression is given as % of control) [3]	VCAM-1 EXPRESSION 50 nM oligo (VCAM-1 expression is given as % of control) [3]	further results
ISIS 1558: P=O oligonucleotide, human ICAM-1 AUG Codon (64-81), SEQ ID NO 1, TGGGAGCCATAGCGAGGC (unmodified DNA)	–	–	–	inhibition of ICAM-1 expression [1]: did not inhibit expression of ICAM-1
ISIS 1573: P=S, human ICAM-1 3′-Untranslated (2849-2866), SEQ ID NO 4, GAGGCTGAGGTGGGAGGA (antisense dG*dA*dG*dG*dC*dT*dG*dA*dG*dG*dT*dG*dG*dG*dA*dG*dG*dA)	not as active as ISIS-1939	–	–	–
ISIS 1931: P=S, human ICAM-1 AUG Codon (55-74), SEQ ID NO 7, CATAGCGAGGCTGAGGTTGC (antisense dC*dA*dT*dA*dG*dC*dG*dA*dG*dG*dC*dT*dG*dA*dG*dG*dT*dT*dG*dC)	inhibit ICAM-1 expression	–	–	–
ISIS 1932: P=S, human ICAM-1 AUG Codon (72-91), SEQ ID NO 8, CGGGGGCTGCTGGGAGCCAT (antisense dC*dG*dG*dG*dG*dG*dC*dT*dG*dC*dT*dG*dG*dG*dA*dG*dC*dC*dA*dT)	slightly less active than ISIS 1570 and ISIS 1931	–	–	–
ISIS 1933: P=S, human ICAM-1 Coding Region (111-130), SEQ ID NO 9 (antisense dA*dG*dA*dG*dC*dC*dC*dC*dG*dA*dG*dC*dA*dG*dG*dA*dC*dC*dA*dG)	weak activity	–	–	–
ISIS 1934: P=S, human ICAM-1 Coding Region (351-370), SEQ ID NO 10 (antisense dT*dG*dC*dC*dC*dA*dT*dC*dA*dG*dG*dG*dC*dA*dG*dT*dT*dT*dG*dA)	weak activity	–	–	–
ISIS 1935: P=S, human ICAM-1 Coding Region (889-908), SEQ ID NO 11 (antisense dG*dG*dT*dC*dA*dC*dA*dC*dT*dG*dA*dC*dT*dG*dA*dG*dG*dC*dC*dT)	weak activity	–	–	–
ISIS 1936: P=S, human ICAM-1 Coding Region (1459-1468), SEQ ID NO 12 (antisense dC*dT*dC*dG*dC*dG*dG*dG*dT*dG*dA*dC*dC*dT*dC*dC*dC*dC*dT*dT)	weak activity	–	–	–
ISIS 1937: P=S, human ICAM-1 Termination Codon (1651-1687), SEQ ID NO 13, TCAGGGAGGCGTGGCTTGTG (antisense dT*dC*dA*dG*dG*dG*dA*dG*dG*dC*dG*dT*dG*dG*dC*dT*dT*dG*dT*dG)	moderate activity	–	–	–
ISIS 1938: P=S (printed P = 5), human ICAM-1 Termination Codon (1668-1687), SEQ ID NO 14, CCTGTCCCGGGATAGGTTCA (antisense dC*dC*dT*dG*dT*dC*dC*dC*dG*dG*dG*dA*dT*dA*dG*dG*dT*dT*dC*dA)	moderate activity	–	–	–
ISIS 2307: P=S, human ICAM-1 3′-Untranslated (1976-1995), SEQ ID NO 26 (antisense dT*dG*dT*dC*dC*dT*dC*dA*dT*dG*dG*dT*dG*dG*dG*dG*dC*dT*dA*dT)	least active of the series	–	–	–
ISIS 2634: 2′-fluoro A, C & U; P=S, human ICAM-1 AUG-Codon (64-81), SEQ ID NO 1 (antisense TGGGAGCCATAGCGAGGC; DNA at G, 2'-fluoro at ACT, all phosphorothioate, T or U not given here)	less effective	–	–	–
ISIS 2637: 2′-fluoro A, C & U, human ICAM-1 3′-Untrans. (1952-1971), SEQ ID NO 15 (antisense CCCCCACCACTTCCCCTCTC; all 2'-fluoro, backbone and T or U not given here; further chemistry not fully specified)	did not exhibit this level of activity	–	–	–
ISIS 2973: 2′-O-methyl; P=S, human ICAM-1 3′-Untrans. (1952-1971), SEQ ID NO 15 (CCCCCACCACTTCCCCTCTC; listed as DNA, chemistry not fully specified)	did not exhibit this level of activity	–	–	–
ISIS 2974: 2′-O-methyl; P=S, human ICAM-1 AUG Codon (64-81), SEQ ID NO 1 (TGGGAGCCATAGCGAGGC; listed as DNA, chemistry not fully specified)	approximately threefold less effective than ISIS 1570	–	–	–
ISIS 5847: phosphorothioate, human VCAM-1 3′-UTR 2957-2976, SEQ ID NO 72, AACATCTCCGTACCATGCCA (DNA, all phosphorothioate, methylation of C not given here)	–	51.8 % of control	24.6 % of control	IC50 [3]: ≤ 50 nM
ISIS 5862: phosphorothioate, human VCAM-1 5′-UTR 48-68, SEQ ID NO 62, CCTGTGTGTGCCTGGGAGGG (DNA, all phosphorothioate, methylation of C not given here)	–	115.0 % of control	3.5 % of control	–
ISIS 5863: phosphorothioate, human VCAM-1 CODING 745-764, SEQ ID NO 64, CAGCCTGCCTTACTGTGGGC (DNA, all phosphorothioate, methylation of C not given here)	–	95.8 % of control	66.7 % of control	–
ISIS 5874: phosphorothioate, human VCAM-1 CODING 1032-1052, SEQ ID NO 65, CTTGAACAATTAATTCCACCT (DNA, all phosphorothioate, methylation of C not given here)	–	66.5 % of control	35.3 % of control	IC50 [3]: ≤ 50 nM
ISIS 5875: phosphorothioate, human VCAM-1 CODING 2183-2203, SEQ ID NO 68, GTCTTTGTTGTTTTCTCTTCC (DNA, all phosphorothioate, methylation of C not given here)	–	59.2 % of control	34.8 % of control	IC50 [3]: ≤ 50 nM
ISIS 5876: phosphorothioate, human VCAM-1 CODING 2038-2057, SEQ ID NO 67, CTGTGTCTCCTGTCTCCGCT (DNA, all phosphorothioate, methylation of C not given here)	–	43.5 % of control	26.6 % of control	IC50 [3]: ≤ 50 nM
ISIS 5884: phosphorothioate, human VCAM-1 5′-UTR 1-19, SEQ ID NO 60, CGATGCAGATACCGCGGAGT (antisense dC*dG*dA*dT*dG*dC*dA*dG*dA*dT*dA*dC*dC*dG*dC*dG*dG*dA*dG*dT)	–	79.2 % of control	37.2 % of control	IC50 [3]: ≤ 50 nM
ISIS 5885: phosphorothioate, human VCAM-1 E/I 1633-1649 + intron, SEQ ID NO 66, TTACCATTGACATAAAGTGTT (DNA, all phosphorothioate, methylation of C not given here)	–	84.4 % of control	52.4 % of control	–
ISIS 9125: rat ICAM-1 antisense, AGGGCCACTGCTCGTCCACA, all 2′-deoxyphosphorothioate (SEQ ID NO: 86) (antisense dA*dG*dG*dG*dC*dC*dA*dC*dT*dG*dC*dT*dC*dG*dT*dC*dC*dA*dC*dA)	–	–	–	corneal edema vs OPTISOL alone group ([4]; day 3 post-surgery): more corneal edema; grading for cornea opacity and neovascularization, better than OPTISOL alone group ([4]; day 3 post-surgery): 50%; average days to rejection ([4]; donor corneas incubated 24 hours in OPTISOL plus 400 μg/ml oligonucleotide, OPTISOL alone 4.80 days): 6.33 days; range of days to rejection ([4]; donor corneas incubated 24 hours in OPTISOL plus oligonucleotide): 6 to 10 days; increase of days to rejection ([4]; over the 24 hour OPTISOL incubation control group): 25%
